Bridge positions count the residues as written; N and C are the ends. Peptide text beside a SMILES is read from it.
Columns and labels:
[1] = target: Sodium channel protein type 9 subunit alpha (Homo sapiens, UniProt Q15858); test: Inhibition of human NaV1.7 at -140 mV holding potential by whole-cell patch clamp assay
[2] = target: Sodium channel protein type 5 subunit alpha (Homo sapiens, UniProt Q14524); test: Inhibition of human NaV1.5 at -140 mV holding potential by whole-cell patch clamp assay
Chain of Sodium channel protein type 5 subunit alpha (Q14524 whole entry): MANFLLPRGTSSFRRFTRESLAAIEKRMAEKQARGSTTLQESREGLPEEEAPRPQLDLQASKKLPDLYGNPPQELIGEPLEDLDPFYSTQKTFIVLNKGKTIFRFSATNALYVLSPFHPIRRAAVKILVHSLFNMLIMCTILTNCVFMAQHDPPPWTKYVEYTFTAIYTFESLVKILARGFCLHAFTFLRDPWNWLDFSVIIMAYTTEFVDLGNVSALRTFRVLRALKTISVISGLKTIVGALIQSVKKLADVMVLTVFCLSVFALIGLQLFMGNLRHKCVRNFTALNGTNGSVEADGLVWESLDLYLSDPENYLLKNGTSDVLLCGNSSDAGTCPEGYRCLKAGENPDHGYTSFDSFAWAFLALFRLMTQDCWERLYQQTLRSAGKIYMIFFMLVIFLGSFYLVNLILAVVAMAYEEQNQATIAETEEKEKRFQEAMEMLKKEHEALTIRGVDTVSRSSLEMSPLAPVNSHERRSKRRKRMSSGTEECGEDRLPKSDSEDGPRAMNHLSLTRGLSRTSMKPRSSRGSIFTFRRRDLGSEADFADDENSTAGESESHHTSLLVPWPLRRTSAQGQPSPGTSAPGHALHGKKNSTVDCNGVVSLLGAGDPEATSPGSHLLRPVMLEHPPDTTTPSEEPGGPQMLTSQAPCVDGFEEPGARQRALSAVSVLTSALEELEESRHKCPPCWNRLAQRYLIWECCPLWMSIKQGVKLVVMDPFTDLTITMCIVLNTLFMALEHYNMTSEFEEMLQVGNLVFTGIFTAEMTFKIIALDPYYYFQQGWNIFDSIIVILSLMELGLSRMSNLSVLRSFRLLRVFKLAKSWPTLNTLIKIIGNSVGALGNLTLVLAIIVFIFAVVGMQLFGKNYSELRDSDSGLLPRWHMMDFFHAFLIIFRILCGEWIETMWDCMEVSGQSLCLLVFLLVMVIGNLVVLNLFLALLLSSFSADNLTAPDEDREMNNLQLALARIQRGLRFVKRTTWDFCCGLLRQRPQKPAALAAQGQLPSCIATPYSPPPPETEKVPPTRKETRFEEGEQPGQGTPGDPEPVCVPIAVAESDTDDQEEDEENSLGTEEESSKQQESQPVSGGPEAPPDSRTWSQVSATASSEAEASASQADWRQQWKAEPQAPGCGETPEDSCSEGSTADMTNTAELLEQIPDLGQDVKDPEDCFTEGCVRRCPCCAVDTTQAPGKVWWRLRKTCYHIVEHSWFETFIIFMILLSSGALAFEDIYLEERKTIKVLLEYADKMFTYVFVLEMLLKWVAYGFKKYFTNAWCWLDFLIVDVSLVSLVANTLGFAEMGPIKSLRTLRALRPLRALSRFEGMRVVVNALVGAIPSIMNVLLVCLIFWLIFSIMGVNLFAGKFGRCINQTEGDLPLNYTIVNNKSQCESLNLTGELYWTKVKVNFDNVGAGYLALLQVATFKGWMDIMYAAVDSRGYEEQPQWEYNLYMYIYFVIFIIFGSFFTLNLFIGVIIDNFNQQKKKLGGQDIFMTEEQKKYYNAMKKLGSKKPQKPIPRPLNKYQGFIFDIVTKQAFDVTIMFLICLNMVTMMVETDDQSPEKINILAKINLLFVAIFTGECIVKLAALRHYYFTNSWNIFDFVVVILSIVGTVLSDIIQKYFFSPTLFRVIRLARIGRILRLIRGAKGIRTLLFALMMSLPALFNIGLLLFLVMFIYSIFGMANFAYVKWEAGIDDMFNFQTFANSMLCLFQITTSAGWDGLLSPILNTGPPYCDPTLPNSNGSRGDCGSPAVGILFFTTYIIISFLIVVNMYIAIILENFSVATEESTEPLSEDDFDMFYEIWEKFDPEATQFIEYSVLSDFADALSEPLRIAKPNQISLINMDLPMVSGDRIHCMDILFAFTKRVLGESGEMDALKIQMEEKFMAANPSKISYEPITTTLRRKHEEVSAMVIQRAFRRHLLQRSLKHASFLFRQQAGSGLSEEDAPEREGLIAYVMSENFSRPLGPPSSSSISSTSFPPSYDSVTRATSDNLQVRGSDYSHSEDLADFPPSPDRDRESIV

Chain of Sodium channel protein type 9 subunit alpha (Q15858 whole entry): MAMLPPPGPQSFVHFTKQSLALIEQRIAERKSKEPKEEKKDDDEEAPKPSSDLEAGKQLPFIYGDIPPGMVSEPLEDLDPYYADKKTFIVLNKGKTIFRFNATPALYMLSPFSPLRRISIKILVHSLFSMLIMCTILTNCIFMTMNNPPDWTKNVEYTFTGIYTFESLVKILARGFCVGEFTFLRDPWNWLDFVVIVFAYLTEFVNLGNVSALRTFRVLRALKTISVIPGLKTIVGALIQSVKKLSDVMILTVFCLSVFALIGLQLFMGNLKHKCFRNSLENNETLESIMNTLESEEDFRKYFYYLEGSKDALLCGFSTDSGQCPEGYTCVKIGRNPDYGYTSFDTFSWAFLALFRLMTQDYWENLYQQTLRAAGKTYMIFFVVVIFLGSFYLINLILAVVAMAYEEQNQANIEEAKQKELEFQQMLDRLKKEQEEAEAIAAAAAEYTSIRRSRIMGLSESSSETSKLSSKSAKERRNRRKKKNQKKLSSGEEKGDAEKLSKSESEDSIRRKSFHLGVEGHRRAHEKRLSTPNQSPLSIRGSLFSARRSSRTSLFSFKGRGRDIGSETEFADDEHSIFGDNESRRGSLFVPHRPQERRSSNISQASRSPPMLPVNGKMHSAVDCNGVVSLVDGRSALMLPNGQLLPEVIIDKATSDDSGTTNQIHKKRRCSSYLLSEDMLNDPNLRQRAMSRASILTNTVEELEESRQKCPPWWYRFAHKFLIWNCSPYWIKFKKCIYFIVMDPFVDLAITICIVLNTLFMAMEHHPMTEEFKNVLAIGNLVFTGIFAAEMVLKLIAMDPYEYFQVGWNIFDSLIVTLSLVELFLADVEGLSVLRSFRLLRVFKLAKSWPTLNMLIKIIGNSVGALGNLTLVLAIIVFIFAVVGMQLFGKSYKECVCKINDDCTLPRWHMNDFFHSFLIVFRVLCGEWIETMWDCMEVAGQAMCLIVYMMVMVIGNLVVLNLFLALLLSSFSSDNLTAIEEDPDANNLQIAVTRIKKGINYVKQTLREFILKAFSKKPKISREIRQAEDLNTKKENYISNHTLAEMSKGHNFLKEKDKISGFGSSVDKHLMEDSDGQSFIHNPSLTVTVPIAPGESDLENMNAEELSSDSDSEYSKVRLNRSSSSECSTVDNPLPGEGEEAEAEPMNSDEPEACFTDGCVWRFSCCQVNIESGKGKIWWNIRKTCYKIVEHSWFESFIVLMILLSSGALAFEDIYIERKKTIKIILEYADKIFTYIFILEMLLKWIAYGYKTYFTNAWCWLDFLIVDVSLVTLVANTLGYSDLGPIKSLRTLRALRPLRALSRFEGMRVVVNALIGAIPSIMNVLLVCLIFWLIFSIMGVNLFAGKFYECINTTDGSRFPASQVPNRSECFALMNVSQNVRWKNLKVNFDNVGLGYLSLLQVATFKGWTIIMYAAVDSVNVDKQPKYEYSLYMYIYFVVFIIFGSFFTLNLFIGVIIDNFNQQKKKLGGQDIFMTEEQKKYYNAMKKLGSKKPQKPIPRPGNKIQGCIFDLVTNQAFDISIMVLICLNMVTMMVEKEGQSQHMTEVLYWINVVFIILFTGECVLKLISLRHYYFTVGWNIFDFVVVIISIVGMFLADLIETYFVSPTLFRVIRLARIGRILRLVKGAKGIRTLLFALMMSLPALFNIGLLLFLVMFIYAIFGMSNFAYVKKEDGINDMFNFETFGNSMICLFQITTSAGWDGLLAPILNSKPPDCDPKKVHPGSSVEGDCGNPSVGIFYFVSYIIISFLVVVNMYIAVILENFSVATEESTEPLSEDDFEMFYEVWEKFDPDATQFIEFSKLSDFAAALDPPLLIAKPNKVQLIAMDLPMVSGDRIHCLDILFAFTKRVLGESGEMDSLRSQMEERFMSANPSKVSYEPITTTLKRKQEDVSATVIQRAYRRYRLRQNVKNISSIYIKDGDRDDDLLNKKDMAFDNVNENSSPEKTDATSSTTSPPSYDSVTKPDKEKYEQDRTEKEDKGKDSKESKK

Structure (SMILES)	IC50 [1] [nM]	IC50 [2] [nM]
CC[C@H](C)[C@@H]1NC(=O)[C@@H]2CSSC[C@@H]3NC(=O)[C@H](C(C)C)NC(=O)[C@H](CC(C)C)NC(=O)[C@H](CC(N)=O)NC(=O)[C@@H]4CCCN4C(=O)[C@H](CCCNC(=N)N)NC(=O)[C@H](CSSC[C@H](NC(=O)[C@@H](N)CC(=O)O)C(=O)N[C@@H](CC(C)C)C(=O)NCC(=O)N[C@@H](Cc4ccccc4)C(=O)N[C@@H](Cc4ccccc4)C(=O)N[C@@H](CCCNC(=N)N)C(=O)N[C@@H](CCCCN)C(=O)N2)NC(=O)[C@H](CSSC[C@@H](C(=O)N[C@@H](CCCCN)C(=O)N[C@@H](Cc2ccc(O)cc2)C(=O)N[C@H](C(=O)N[C@@H](Cc2ccccc2)C(N)=O)C(C)C)NC(=O)[C@H](Cc2c[nH]c4ccccc24)NC(=O)[C@H](CCCCN)NC(=O)[C@H](Cc2cnc[nH]2)NC(=O)[C@H]([C@@H](C)O)NC(=O)[C@H](CCCNC(=N)N)NC(=O)[C@H](CO)NC3=O)NC(=O)[C@H](CCCCN)NC(=O)[C@H](CC(=O)O)NC(=O)[C@H](CC(N)=O)NC(=O)[C@H](CC(=O)O)NC(=O)[C@@H]2CCCN2C1=O (H-DCLGFFRKCIPDNDKCCRPNLVCSRTHKWCKYVF-NH2; disulfide 2-17, 9-23, 16-30)	19	3000
CC[C@H](C)[C@@H]1NC(=O)[C@@H]2CSSC[C@@H]3NC(=O)[C@H](C(C)C)NC(=O)[C@H](CC(C)C)NC(=O)[C@H](CC(N)=O)NC(=O)[C@@H]4CCCN4C(=O)[C@H](CCCNC(=N)N)NC(=O)[C@H](CSSC[C@H](NC(=O)[C@@H](N)CC(=O)O)C(=O)N[C@@H](CC(C)C)C(=O)NCC(=O)N[C@@H](C)C(=O)N[C@@H](Cc4c[nH]c5ccccc45)C(=O)N[C@@H](CCCNC(=N)N)C(=O)N[C@@H](CCCCN)C(=O)N2)NC(=O)[C@H](CSSC[C@@H](C(=O)N[C@@H](CCCCN)C(=O)N[C@@H](Cc2ccc(O)cc2)C(=O)N[C@H](C(=O)N[C@@H](Cc2ccccc2)C(N)=O)C(C)C)NC(=O)[C@H](Cc2c[nH]c4ccccc24)NC(=O)[C@H](CCCCN)NC(=O)[C@H](Cc2cnc[nH]2)NC(=O)[C@H]([C@@H](C)O)NC(=O)[C@H](CCCNC(=N)N)NC(=O)[C@H](CO)NC3=O)NC(=O)[C@H](CCCCN)NC(=O)[C@H](CC(=O)O)NC(=O)[C@H](CC(N)=O)NC(=O)[C@H](CC(=O)O)NC(=O)[C@@H]2CCCN2C1=O (H-DCLGAWRKCIPDNDKCCRPNLVCSRTHKWCKYVF-NH2; disulfide 2-17, 9-23, 16-30)	59	> 10000
CC[C@H](C)[C@@H]1NC(=O)[C@@H]2CSSC[C@@H]3NC(=O)[C@H](C(C)C)NC(=O)[C@H](CC(C)C)NC(=O)[C@H](CC(N)=O)NC(=O)[C@@H]4CCCN4C(=O)[C@H](CCCNC(=N)N)NC(=O)[C@H](CSSC[C@H](NC(=O)[C@@H](N)CC(=O)O)C(=O)N[C@@H](CC(C)C)C(=O)NCC(=O)N[C@@H](Cc4ccccc4)C(=O)N[C@@H](Cc4ccc(O)cc4)C(=O)N[C@@H](CCCNC(=N)N)C(=O)N[C@@H](CCCCN)C(=O)N2)NC(=O)[C@H](CSSC[C@@H](C(=O)N[C@@H](CCCCN)C(=O)N[C@@H](Cc2ccc(O)cc2)C(=O)N[C@H](C(=O)N[C@@H](Cc2ccccc2)C(N)=O)C(C)C)NC(=O)[C@H](Cc2c[nH]c4ccccc24)NC(=O)[C@H](CCCCN)NC(=O)[C@H](Cc2cnc[nH]2)NC(=O)[C@H]([C@@H](C)O)NC(=O)[C@H](CCCNC(=N)N)NC(=O)[C@H](CO)NC3=O)NC(=O)[C@H](CCCCN)NC(=O)[C@H](CC(=O)O)NC(=O)[C@H](CC(N)=O)NC(=O)[C@H](CC(=O)O)NC(=O)[C@@H]2CCCN2C1=O (H-DCLGFYRKCIPDNDKCCRPNLVCSRTHKWCKYVF-NH2; disulfide 2-17, 9-23, 16-30)	63	> 10000
CC[C@H](C)[C@@H]1NC(=O)[C@@H]2CSSC[C@@H]3NC(=O)[C@H](C(C)C)NC(=O)[C@H](CC(C)C)NC(=O)[C@H](CC(N)=O)NC(=O)[C@@H]4CCCN4C(=O)[C@H](CCCNC(=N)N)NC(=O)[C@H](CSSC[C@H](NC(=O)[C@@H](N)CC(=O)O)C(=O)N[C@@H](CC(C)C)C(=O)NCC(=O)N[C@@H](Cc4ccccc4)C(=O)N[C@@H](CCSC)C(=O)N[C@@H](CCCNC(=N)N)C(=O)N[C@@H](CCCCN)C(=O)N2)NC(=O)[C@H](CSSC[C@@H](C(=O)N[C@@H](CCCCN)C(=O)N[C@@H](Cc2ccc(O)cc2)C(=O)N[C@H](C(=O)N[C@@H](Cc2ccccc2)C(N)=O)C(C)C)NC(=O)[C@H](Cc2c[nH]c4ccccc24)NC(=O)[C@H](CCCCN)NC(=O)[C@H](Cc2cnc[nH]2)NC(=O)[C@H]([C@@H](C)O)NC(=O)[C@H](CCCNC(=N)N)NC(=O)[C@H](CO)NC3=O)NC(=O)[C@H](CCCCN)NC(=O)[C@H](CC(=O)O)NC(=O)[C@H](C)NC(=O)[C@H](CC(=O)O)NC(=O)[C@@H]2CCCN2C1=O (H-DCLGFMRKCIPDADKCCRPNLVCSRTHKWCKYVF-NH2; disulfide 2-17, 9-23, 16-30)	190	> 5000
CC[C@H](C)[C@@H]1NC(=O)[C@@H]2CSSC[C@@H]3NC(=O)[C@H](C(C)C)NC(=O)[C@H](CC(C)C)NC(=O)[C@H](CC(N)=O)NC(=O)[C@@H]4CCCN4C(=O)[C@H](CCCNC(=N)N)NC(=O)[C@H](CSSC[C@H](NC(=O)[C@@H](N)CC(=O)O)C(=O)N[C@@H](CC(C)C)C(=O)NCC(=O)N[C@@H](Cc4ccc(I)cc4)C(=O)N[C@@H](CCSC)C(=O)N[C@@H](CCCNC(=N)N)C(=O)N[C@@H](CCCCN)C(=O)N2)NC(=O)[C@H](CSSC[C@@H](C(=O)N[C@@H](CCCCN)C(=O)N[C@@H](Cc2ccc(O)cc2)C(=O)N[C@H](C(=O)N[C@@H](Cc2ccccc2)C(N)=O)C(C)C)NC(=O)[C@H](Cc2c[nH]c4ccccc24)NC(=O)[C@H](CCCCN)NC(=O)[C@H](Cc2cnc[nH]2)NC(=O)[C@H]([C@@H](C)O)NC(=O)[C@H](CCCNC(=N)N)NC(=O)[C@H](CO)NC3=O)NC(=O)[C@H](CCCCN)NC(=O)[C@H](CC(=O)O)NC(=O)[C@H](CC(N)=O)NC(=O)[C@H](CC(=O)O)NC(=O)[C@@H]2CCCN2C1=O	236	> 10000
CCC[C@@H]1NC(=O)CNC(=O)[C@H](CC(C)C)NC(=O)[C@@H](NC(=O)[C@@H](N)CC(=O)O)CSSC[C@@H]2NC(=O)[C@@H]3CSSC[C@@H](C(=O)N[C@@H](CCCCN)C(=O)N[C@@H](Cc4ccc(O)cc4)C(=O)N[C@H](C(=O)N[C@@H](Cc4ccccc4)C(N)=O)C(C)C)NC(=O)[C@H](Cc4c[nH]c5ccccc45)NC(=O)[C@H](CCCCN)NC(=O)[C@H](Cc4cnc[nH]4)NC(=O)[C@H]([C@@H](C)O)NC(=O)[C@H](CCCNC(=N)N)NC(=O)[C@H](CO)NC(=O)[C@H](CSSC[C@H](NC(=O)[C@H](CCCCN)NC(=O)[C@H](CCCNC(=N)N)NC(=O)[C@H](CCSC)NC1=O)C(=O)N[C@@H]([C@@H](C)CC)C(=O)N1CCC[C@H]1C(=O)N[C@@H](CC(=O)O)C(=O)N[C@@H](CC(N)=O)C(=O)N[C@@H](CC(=O)O)C(=O)N[C@@H](CCCCN)C(=O)N3)NC(=O)[C@H](C(C)C)NC(=O)[C@H](CC(C)C)NC(=O)[C@H](CC(N)=O)NC(=O)[C@@H]1CCCN1C(=O)[C@H](CCCNC(=N)N)NC2=O	39	> 10000
